Measurements as given in PubChem BioAssay AID330 (DTP/NCI, 2004).
Values joined by “and” are separate entries in the source; they are usually repeats but may differ in a detail not shown here. Equal entries are not always repeated. Inconclusive results and toxic doses are left out. Rule for the calls: active = survival T/C of 150% or more; inactive = T/C below 125% in these data.

Tested on: P388 leukemia ip, CD2F1 mice, survival T/C
Assay: NCI In Vivo Anticancer Drug Screen. Data for tumor model P388 Leukemia (intraperitoneal) in CD2F1 (CDF1) mice
Conditions: endpoint: median survival time, higher = longer survival
Summary of the method: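 Mice carrying the transplanted tumor received test compound or vehicle. Survival was recorded in each group, and the value is the treated-group measurement divided by that of the vehicle-treated control group.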

[1] = dose: 50.0 mg/kg/injection, schedule: Q01DX005 (ip), vehicle: saline with Tween-80
[2] = dose: 100.0 mg/kg/injection, schedule: Q01DX005 (ip), vehicle: saline with Tween-80
[3] = dose: 200.0 mg/kg/injection, schedule: Q01DX005 (ip), vehicle: saline with Tween-80
[4] = dose: 50.0 mg/kg/injection, schedule: Q01DX005 (ip), vehicle: Klucel (hydroxypropylcellulose) (HPC)
[5] = dose: 100.0 mg/kg/injection, schedule: Q01DX005 (ip), vehicle: Klucel (hydroxypropylcellulose) (HPC)
[6] = dose: 12.5 mg/kg/injection, schedule: Q01DX009 (ip), vehicle: Klucel (hydroxypropylcellulose) (HPC)
[7] = dose: 25.0 mg/kg/injection, schedule: Q01DX009 (ip), vehicle: Klucel (hydroxypropylcellulose) (HPC)
[8] = dose: 50.0 mg/kg/injection, schedule: Q01DX009 (ip), vehicle: Klucel (hydroxypropylcellulose) (HPC)
[9] = dose: 100.0 mg/kg/injection, schedule: Q01DX009 (ip), vehicle: Klucel (hydroxypropylcellulose) (HPC)
[10] = dose: 60.0 mg/kg/injection, schedule: Q01DX005 (ip), vehicle: Klucel (hydroxypropylcellulose) (HPC)
[11] = dose: 120.0 mg/kg/injection, schedule: Q01DX005 (ip), vehicle: Klucel (hydroxypropylcellulose) (HPC)
[12] = dose: 240.0 mg/kg/injection, schedule: Q01DX005 (ip), vehicle: Klucel (hydroxypropylcellulose) (HPC)
[13] = dose: 100.0 mg/kg/injection, schedule: Q04DX002 (ip), vehicle: Klucel (hydroxypropylcellulose) (HPC)
[14] = dose: 200.0 mg/kg/injection, schedule: Q04DX002 (ip), vehicle: Klucel (hydroxypropylcellulose) (HPC)

Measured: T/C

N=c1c2ncn(C3OC(CO)C(O)C3O)c2ncn1O (configuration not stated)
inactive: dose: 6.25 mg/kg/injection, schedule: Q01DX005 (ip), vehicle: saline 97 % of control | dose: 12.5 mg/kg/injection, schedule: Q01DX005 (ip), vehicle: saline 101 % of control | dose: 25.0 mg/kg/injection, schedule: Q01DX005 (ip), vehicle: saline 101 % of control and 112 % of control | [1] 105 % of control | dose: 50.0 mg/kg/injection, schedule: Q01DX005 (ip), vehicle: saline 112 % of control and 94 % of control | [2] 100 % of control | [3] 108 % of control

COc1ccc2oc3cc4c(c(O)c3c(=O)c2c1CC=C(C)C)C=CC(C)(C)O4
inactive: [4] 88 % of control | [5] 86 % of control | dose: 200.0 mg/kg/injection, schedule: Q01DX005 (ip), vehicle: Klucel (hydroxypropylcellulose) (HPC) 87 % of control

COC(=O)C(O)CC1=CC[C@@H]2CC=C[C@H]12 (some centres not stated)
inactive: [1] 104 % of control | [2] 104 % of control | [3] 104 % of control

FC(F)(F)c1cccc(N=c2ccn3ccccc3c2)c1
inactive: dose: 12.5 mg/kg/injection, schedule: Q01DX009 (ip), vehicle: saline with Tween-80 103 % of control | dose: 25.0 mg/kg/injection, schedule: Q01DX009 (ip), vehicle: saline with Tween-80 96 % of control | dose: 50.0 mg/kg/injection, schedule: Q01DX009 (ip), vehicle: saline with Tween-80 91 % of control and 94 % of control

O=c1[nH]ncn1-c1ccccc1
inactive: [6] 100 % of control | [7] 109 % of control | [8] 98 % of control | [9] 106 % of control

CCN(CC)C(=Nc1ccc(Cl)c(Cl)c1)SC(NC=O)=C(Cl)Cl
inactive: [10] 100 % of control | [11] 104 % of control | [12] 104 % of control

O=C1NC2C(=CC(O)C(O)C2O)c2cc3c(cc21)OCO3 (configuration not stated)
inactive: dose: 3.12 mg/kg/injection, schedule: Q01DX009 (ip), vehicle: saline + alcohol 102 % of control | dose: 6.25 mg/kg/injection, schedule: Q01DX005 (ip), vehicle: saline + alcohol 111 % of control | dose: 6.25 mg/kg/injection, schedule: Q01DX009 (ip), vehicle: saline + alcohol 102 % of control | dose: 12.5 mg/kg/injection, schedule: Q01DX005 (ip), vehicle: saline + alcohol 111 % of control | dose: 25.0 mg/kg/injection, schedule: Q01DX005 (ip), vehicle: saline + alcohol 105 % of control | dose: 25.0 mg/kg/injection, schedule: Q01DX009 (ip), vehicle: saline + alcohol 101 % of control | dose: 50.0 mg/kg/injection, schedule: Q01DX005 (ip), vehicle: saline + alcohol 105 % of control

C=CCOC(=O)OCCO
inactive: dose: 60.0 mg/kg/injection, schedule: Q01DX005 (ip), vehicle: saline 101 % of control | dose: 120.0 mg/kg/injection, schedule: Q01DX005 (ip), vehicle: saline 108 % of control | dose: 240.0 mg/kg/injection, schedule: Q01DX005 (ip), vehicle: saline 99 % of control

COc1cc([N+](=O)[O-])c(S(=O)(=O)O)cc1N=N/C(=N/Nc1cc(S(=O)(=O)O)c([N+](=O)[O-])cc1OC)C(=O)Nc1ccccc1
inactive: [4] 95 % of control | [5] 93 % of control

Cc1nn(-c2ccc(Cl)cc2)c2nc(N)nc(N)c12
inactive: dose: 6.25 mg/kg/injection, schedule: Q04DX002 (ip), vehicle: Klucel (hydroxypropylcellulose) (HPC) 92 % of control | dose: 12.5 mg/kg/injection, schedule: Q04DX002 (ip), vehicle: Klucel (hydroxypropylcellulose) (HPC) 89 % of control and 93 % of control | dose: 25.0 mg/kg/injection, schedule: Q04DX002 (ip), vehicle: Klucel (hydroxypropylcellulose) (HPC) 92 % of control | dose: 50.0 mg/kg/injection, schedule: Q04DX002 (ip), vehicle: Klucel (hydroxypropylcellulose) (HPC) 89 % of control | [13] 105 % of control | [14] 115 % of control | dose: 400.0 mg/kg/injection, schedule: Q04DX002 (ip), vehicle: Klucel (hydroxypropylcellulose) (HPC) 113 % of control

CCCSC(SCCC)C1OC(c2ccccc2)OC2COC(c3ccccc3)OC21 (configuration not stated)
inactive: dose: 50.0 mg/kg/injection, schedule: Q01DX005 (ip), vehicle: Klucel + Tween-80 90 % of control | dose: 100.0 mg/kg/injection, schedule: Q01DX005 (ip), vehicle: Klucel + Tween-80 87 % of control | dose: 200.0 mg/kg/injection, schedule: Q01DX005 (ip), vehicle: Klucel + Tween-80 87 % of control

CCn1cnc2c(SC3CCCC3)ncnc21
inactive: dose: 100.0 mg/kg/injection, schedule: Q01DX009 (ip), vehicle: saline sonified 105 % of control | dose: 200.0 mg/kg/injection, schedule: Q01DX009 (ip), vehicle: saline sonified 110 % of control

O=C1C=CC(=O)C1=Cc1ccccc1
inactive: dose: 2.5 mg/kg/injection, schedule: Q04DX002 (ip), vehicle: saline with Tween-80 95 % of control | dose: 5.0 mg/kg/injection, schedule: Q04DX002 (ip), vehicle: saline with Tween-80 97 % of control

CN1C=C(C#N)CCC1Sc1ccc(Cl)cc1 (configuration not stated)
inactive: dose: 60.0 mg/kg/injection, schedule: Q01DX005 (ip), vehicle: saline with Tween-80 105 % of control | dose: 120.0 mg/kg/injection, schedule: Q01DX005 (ip), vehicle: saline with Tween-80 103 % of control | dose: 240.0 mg/kg/injection, schedule: Q01DX005 (ip), vehicle: saline with Tween-80 104 % of control

Cc1ccc(S(=O)(=O)N/N=C/c2ccc(C(=O)O)cc2)cc1
inactive: dose: 12.5 mg/kg/injection, schedule: Q01DX009 (ip), vehicle: other 105 % of control | dose: 25.0 mg/kg/injection, schedule: Q01DX009 (ip), vehicle: other 111 % of control | dose: 50.0 mg/kg/injection, schedule: Q01DX009 (ip), vehicle: other 109 % of control | dose: 100.0 mg/kg/injection, schedule: Q01DX009 (ip), vehicle: other 100 % of control | dose: 200.0 mg/kg/injection, schedule: Q01DX009 (ip), vehicle: other 95 % of control | dose: 400.0 mg/kg/injection, schedule: Q01DX009 (ip), vehicle: other 105 % of control

COC(=O)c1c(OC)cc2c(Cl)c3c(c(O)c2c1C)C(=O)[C@@]1(O)C(=O)C=C(OC)[C@H](O)[C@@]1(O)C3=O
inactive: dose: 12.5 mg/kg/injection, schedule: Q01DX005 (ip), vehicle: saline with Tween-80 104 % of control | dose: 25.0 mg/kg/injection, schedule: Q01DX005 (ip), vehicle: saline with Tween-80 109 % of control | [1] 95 % of control | [2] 104 % of control | [3] 110 % of control

C[CH2][Sn]([Br])([CH2]C)[c]1ccccc1CN(C)C
inactive: dose: 12.5 mg/kg/injection, schedule: Q01DX009 (ip), vehicle: saline 100 % of control and 114 % of control | dose: 25.0 mg/kg/injection, schedule: Q01DX009 (ip), vehicle: saline 100 % of control and 114 % of control | dose: 50.0 mg/kg/injection, schedule: Q01DX009 (ip), vehicle: saline 117 % of control and 124 % of control

CC(=O)Nc1cc(N)c2c(c1)CCCC2=O
inactive: [10] 97 % of control | [11] 96 % of control | [12] 90 % of control

O=C(Nc1ccc(C2=NCCN2)cc1)c1ccc(C(=O)Nc2ccc(C3=NCCN3)cc2)cc1
inactive: dose: 75.0 mg/kg/injection, schedule: Q01DX010 (ip), vehicle: saline 118 % of control | dose: 112.0 mg/kg/injection, schedule: Q01DX010 (ip), vehicle: saline 100 % of control

Cc1ccc(N=Nc2c(C)nn(C(=S)S)c2C)cc1
inactive: [13] 100 % of control | [14] 105 % of control

NC1=NC(=O)C(c2ccccc2)S1 (configuration not stated)
inactive: [6] 103 % of control | [7] 99 % of control | [8] 113 % of control | [9] 105 % of control
